Assay [1] addresses T1, Alpha-2A adrenergic receptor (Homo sapiens, UniProt P08913).
T1 sequence (P08913 whole entry): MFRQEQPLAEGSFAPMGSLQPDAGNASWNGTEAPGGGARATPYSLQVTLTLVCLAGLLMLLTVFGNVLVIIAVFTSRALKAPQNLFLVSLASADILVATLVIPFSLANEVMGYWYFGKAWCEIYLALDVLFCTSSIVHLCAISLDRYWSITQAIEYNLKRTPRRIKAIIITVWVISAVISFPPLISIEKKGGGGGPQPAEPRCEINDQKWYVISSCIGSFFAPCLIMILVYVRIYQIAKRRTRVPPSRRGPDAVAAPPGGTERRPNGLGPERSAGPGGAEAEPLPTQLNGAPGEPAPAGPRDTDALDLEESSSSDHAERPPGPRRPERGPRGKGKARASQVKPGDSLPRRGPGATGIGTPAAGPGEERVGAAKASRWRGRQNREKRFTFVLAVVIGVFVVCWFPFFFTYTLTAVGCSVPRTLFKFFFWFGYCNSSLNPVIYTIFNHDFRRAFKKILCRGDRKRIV
In kind it is functional, cell-based.

For assay [2], the target named is T2, Type-1 angiotensin II receptor (Homo sapiens, UniProt P30556).
T2 sequence (P30556 whole entry): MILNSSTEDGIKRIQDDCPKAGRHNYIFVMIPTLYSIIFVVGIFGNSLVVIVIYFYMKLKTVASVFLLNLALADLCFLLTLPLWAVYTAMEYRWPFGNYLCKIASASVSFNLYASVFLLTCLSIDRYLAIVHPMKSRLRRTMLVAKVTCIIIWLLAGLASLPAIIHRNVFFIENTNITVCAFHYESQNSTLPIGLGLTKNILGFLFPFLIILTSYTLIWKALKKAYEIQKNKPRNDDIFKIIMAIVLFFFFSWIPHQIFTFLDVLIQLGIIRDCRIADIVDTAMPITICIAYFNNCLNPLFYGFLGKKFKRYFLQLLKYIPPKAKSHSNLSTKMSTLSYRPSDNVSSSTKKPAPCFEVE

A further assay concerns the target T3, Adenosine receptor A3 (Homo sapiens, UniProt P0DMS8).
T3 sequence (P0DMS8 whole entry): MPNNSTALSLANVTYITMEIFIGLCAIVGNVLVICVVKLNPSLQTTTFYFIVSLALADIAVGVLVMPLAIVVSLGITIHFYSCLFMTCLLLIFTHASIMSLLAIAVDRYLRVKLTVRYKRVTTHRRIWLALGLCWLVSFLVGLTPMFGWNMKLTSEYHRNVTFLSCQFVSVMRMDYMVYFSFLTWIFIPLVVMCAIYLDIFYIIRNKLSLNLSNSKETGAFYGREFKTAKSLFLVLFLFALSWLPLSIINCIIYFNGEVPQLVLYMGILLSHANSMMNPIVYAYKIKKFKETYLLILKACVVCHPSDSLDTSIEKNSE

In assay [3] the target is Kappa-type opioid receptor (Homo sapiens, UniProt P41145).
Sequence of Kappa-type opioid receptor (P41145 whole entry): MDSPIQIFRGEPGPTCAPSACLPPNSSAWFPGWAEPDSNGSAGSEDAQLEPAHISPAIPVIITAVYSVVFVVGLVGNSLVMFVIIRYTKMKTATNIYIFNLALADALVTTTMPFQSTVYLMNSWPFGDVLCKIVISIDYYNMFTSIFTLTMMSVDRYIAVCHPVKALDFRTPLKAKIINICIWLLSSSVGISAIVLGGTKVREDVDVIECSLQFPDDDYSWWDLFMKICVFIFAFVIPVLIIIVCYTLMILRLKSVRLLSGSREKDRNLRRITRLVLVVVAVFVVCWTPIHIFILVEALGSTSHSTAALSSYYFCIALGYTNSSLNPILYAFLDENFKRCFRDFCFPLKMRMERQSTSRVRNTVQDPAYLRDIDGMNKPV
Assay [4] concerns the target T4, Muscarinic acetylcholine receptor M2 (Homo sapiens, UniProt P08172).
T4 sequence (P08172 whole entry): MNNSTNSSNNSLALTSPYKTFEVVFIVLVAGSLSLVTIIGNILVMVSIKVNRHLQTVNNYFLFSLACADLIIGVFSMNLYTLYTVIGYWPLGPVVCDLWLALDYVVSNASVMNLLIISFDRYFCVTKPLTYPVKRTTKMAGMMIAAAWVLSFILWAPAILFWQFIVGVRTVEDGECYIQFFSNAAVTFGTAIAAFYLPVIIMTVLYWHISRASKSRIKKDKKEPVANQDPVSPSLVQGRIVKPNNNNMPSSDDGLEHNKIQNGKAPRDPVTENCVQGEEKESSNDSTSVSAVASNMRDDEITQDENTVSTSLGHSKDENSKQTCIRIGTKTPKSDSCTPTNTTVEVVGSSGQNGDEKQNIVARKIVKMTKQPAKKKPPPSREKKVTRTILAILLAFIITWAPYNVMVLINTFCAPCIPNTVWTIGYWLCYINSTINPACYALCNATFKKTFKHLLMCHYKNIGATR
In kind it is functional, cell-based.

In a further assay the target is T5, B2 bradykinin receptor (Homo sapiens, UniProt P30411).
T5 sequence (P30411 whole entry): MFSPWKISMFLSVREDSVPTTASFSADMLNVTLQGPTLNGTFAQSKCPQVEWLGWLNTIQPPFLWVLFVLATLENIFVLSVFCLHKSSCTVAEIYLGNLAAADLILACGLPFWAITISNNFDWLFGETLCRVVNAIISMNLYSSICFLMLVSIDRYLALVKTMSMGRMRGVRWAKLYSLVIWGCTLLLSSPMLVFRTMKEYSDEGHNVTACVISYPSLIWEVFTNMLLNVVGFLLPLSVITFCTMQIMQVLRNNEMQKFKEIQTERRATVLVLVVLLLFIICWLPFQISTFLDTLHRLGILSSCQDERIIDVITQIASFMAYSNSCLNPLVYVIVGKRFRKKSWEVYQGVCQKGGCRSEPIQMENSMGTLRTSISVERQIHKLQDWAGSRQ

A further assay has as its target Motilin receptor (Homo sapiens, UniProt O43193).
Another assay deals with Histamine H2 receptor (Homo sapiens, UniProt P25021). The assay is classed as functional, cell-based.
Sequence of Histamine H2 receptor (P25021 whole entry): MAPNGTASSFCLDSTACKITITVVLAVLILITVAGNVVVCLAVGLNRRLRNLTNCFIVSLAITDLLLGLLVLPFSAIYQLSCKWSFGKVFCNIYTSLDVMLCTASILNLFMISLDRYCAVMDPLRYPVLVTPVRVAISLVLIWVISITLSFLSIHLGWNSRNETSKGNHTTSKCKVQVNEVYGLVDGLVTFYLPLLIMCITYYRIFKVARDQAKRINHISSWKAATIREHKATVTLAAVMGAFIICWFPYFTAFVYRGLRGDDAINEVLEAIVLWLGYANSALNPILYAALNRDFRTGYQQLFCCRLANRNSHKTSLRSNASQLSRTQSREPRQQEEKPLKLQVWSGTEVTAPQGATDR
For a further assay, the target named is T6, Glucocorticoid receptor (Homo sapiens, UniProt P04150).
T6 sequence (P04150 whole entry): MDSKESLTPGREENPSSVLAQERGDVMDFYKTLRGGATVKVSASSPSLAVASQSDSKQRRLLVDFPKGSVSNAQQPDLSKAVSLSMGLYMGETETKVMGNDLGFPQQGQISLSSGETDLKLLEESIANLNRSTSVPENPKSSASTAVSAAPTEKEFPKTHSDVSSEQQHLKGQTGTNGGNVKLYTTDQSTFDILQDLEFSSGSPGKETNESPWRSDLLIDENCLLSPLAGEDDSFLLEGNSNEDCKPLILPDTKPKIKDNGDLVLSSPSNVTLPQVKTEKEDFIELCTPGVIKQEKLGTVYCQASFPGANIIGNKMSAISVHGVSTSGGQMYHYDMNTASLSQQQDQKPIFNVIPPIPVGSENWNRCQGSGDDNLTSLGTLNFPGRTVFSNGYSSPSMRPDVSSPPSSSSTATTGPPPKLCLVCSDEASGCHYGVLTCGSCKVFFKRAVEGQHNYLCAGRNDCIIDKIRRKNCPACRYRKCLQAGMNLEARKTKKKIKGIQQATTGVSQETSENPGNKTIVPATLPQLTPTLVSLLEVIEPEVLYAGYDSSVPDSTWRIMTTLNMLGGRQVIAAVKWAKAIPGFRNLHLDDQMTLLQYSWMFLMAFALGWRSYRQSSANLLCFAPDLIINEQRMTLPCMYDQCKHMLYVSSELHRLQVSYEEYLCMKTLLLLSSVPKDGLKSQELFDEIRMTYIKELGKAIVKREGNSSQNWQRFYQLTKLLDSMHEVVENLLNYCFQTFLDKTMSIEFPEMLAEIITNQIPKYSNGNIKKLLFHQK
Further: assay procedure not described here.

Sequence of Motilin receptor (O43193 whole entry): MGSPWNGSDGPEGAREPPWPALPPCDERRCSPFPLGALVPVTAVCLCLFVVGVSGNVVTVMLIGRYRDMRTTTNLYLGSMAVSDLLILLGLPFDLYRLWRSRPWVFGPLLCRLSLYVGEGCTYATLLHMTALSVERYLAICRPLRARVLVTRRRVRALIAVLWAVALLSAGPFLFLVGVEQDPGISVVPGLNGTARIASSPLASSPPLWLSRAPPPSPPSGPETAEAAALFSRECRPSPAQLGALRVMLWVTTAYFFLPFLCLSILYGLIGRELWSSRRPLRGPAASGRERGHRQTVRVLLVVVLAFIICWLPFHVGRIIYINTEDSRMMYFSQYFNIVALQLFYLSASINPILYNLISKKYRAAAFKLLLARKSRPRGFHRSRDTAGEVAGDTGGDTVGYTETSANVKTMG

The term AC50 denotes the midpoint of the concentration-response curve, whichever way the signal moves. Read a low AC50 as activity at low concentration. In the case of `CC(=O)SC[C@@H](C)C(=O)N1CCC[C@H]1C(=O)N[C@@H](Cc1ccccc1)C(=O)O`, the AC50 was greater than 30 µM in assay [1]; greater than 30 µM in [2]; greater than 30 µM on Adenosine receptor A3; 21 µM in assay [3]; greater than 30 µM in [4]; greater than 30 µM at B2 bradykinin receptor. The AC50 at Motilin receptor and at Histamine H2 receptor was greater than 30 µM throughout.
As to `NC(=O)CN1CCCC1=O`, the half-maximal activity concentration (AC50) (in [1]; in [2]; on Adenosine receptor A3; in [3]; in assay [4]; at B2 bradykinin receptor) was greater than 30 µM throughout. Besides, the AC50 on Motilin receptor, on Glucocorticoid receptor and on Histamine H2 receptor was greater than 30 µM each time.
Regarding `C[N@+]1(CCF)[C@@H]2CC[C@H]1C[C@@H](OC(=O)C(O)(c1ccccc1)c1ccccc1)C2`, the AC50 in [1] is greater than 30 µM; in assay [2], greater than 30 µM; on Adenosine receptor A3, greater than 30 µM; in assay [3], 26 µM; in assay [4] it was greater than 30 µM; at B2 bradykinin receptor it was greater than 30 µM. In addition, the half-maximal activity concentration (AC50) on Motilin receptor, at Glucocorticoid receptor and on Histamine H2 receptor was greater than 30 µM throughout.
As to `CC(=O)O[C@H](CC(=O)[O-])C[N+](C)(C)C` [ACETYLCARNITINE], the AC50 (in assay [1]; in assay [2]; on Adenosine receptor A3; in assay [3]; in [4]; on B2 bradykinin receptor) was greater than 30 µM throughout. The half-maximal activity concentration (AC50) at Motilin receptor, on Glucocorticoid receptor and on Histamine H2 receptor was greater than 30 µM each time.
Regarding `Cn1c(=O)cc(N2CCC[C@@H](N)C2)n(Cc2ccccc2C#N)c1=O` [ALOGLIPTIN], the AC50 is greater than 30 µM in assay [2]; greater than 30 µM on Adenosine receptor A3; 8.32 µM in assay [3]; greater than 30 µM on B2 bradykinin receptor; greater than 10 µM on Motilin receptor; greater than 30 µM on Glucocorticoid receptor.
As for `CCN1CCCC1CNC(=O)c1cc(S(=O)(=O)CC)c(N)cc1OC` (centres undefined) [AMISULPRIDE], the AC50 (in assay [1]; in assay [2]; on Adenosine receptor A3; in assay [3]; in [4]; at B2 bradykinin receptor) was greater than 30 µM throughout. Besides, the AC50 at Glucocorticoid receptor and on Histamine H2 receptor was greater than 30 µM throughout.
For `C=C[C@@]1(C)CC(=O)[C@]2(O)[C@@]3(C)[C@@H](O)CCC(C)(C)[C@@H]3[C@H](O)[C@H](OC(C)=O)[C@@]2(C)O1` [COLFORSIN], the concentration at half-maximal activity (AC50) was greater than 30 µM in [1]; greater than 30 µM in [2]; greater than 30 µM at Adenosine receptor A3; greater than 30 µM in [3]; 1.9 µM in [4]; greater than 30 µM on B2 bradykinin receptor. Further, the concentration at half-maximal activity (AC50) on Motilin receptor and on Glucocorticoid receptor was greater than 30 µM in each case.
As to `CC(=O)[C@@]1(O)CC[C@H]2[C@@H]3C=C(Cl)C4=CC(=O)[C@@H]5C[C@@H]5[C@]4(C)[C@H]3CC[C@@]21C` [CYPROTERONE], the concentration at half-maximal activity (AC50) in assay [1] is greater than 10 µM; in [2], greater than 30 µM; at Adenosine receptor A3, greater than 10 µM; in assay [3] it was 5.32 µM; in [4], greater than 10 µM; at B2 bradykinin receptor, greater than 10 µM. The half-maximal activity concentration (AC50) at Motilin receptor and at Histamine H2 receptor was greater than 10 µM throughout.
Consider `COc1cc2ncnc(Nc3ccc(F)c(Cl)c3)c2cc1NC(=O)/C=C/CN1CCCCC1` [DACOMITINIB ANHYDROUS], for which the AC50 was 21 µM at Adenosine receptor A3 and greater than 30 µM in [4].
For `CC(=O)OCC(=O)[C@@]1(O)[C@H](C)C[C@H]2[C@@H]3CCC4=CC(=O)C=C[C@]4(C)[C@@]3(F)[C@@H](O)C[C@@]21C` [DEXAMETHASONE ACETATE], the AC50 in assay [1] was greater than 10 µM; in assay [2], greater than 30 µM; at Adenosine receptor A3, greater than 30 µM; in assay [3], greater than 10 µM; in [4], greater than 10 µM; on B2 bradykinin receptor, greater than 30 µM. Besides, the AC50 at Motilin receptor and at Histamine H2 receptor was greater than 10 µM each time.
For the compound `CC(=O)[C@]1(O)Cc2c(O)c3c(c(O)c2[C@@H](O[C@H]2C[C@H](N)[C@H](O)[C@H](C)O2)C1)C(=O)c1ccccc1C3=O` [IDARUBICIN], the AC50 in assay [2] was greater than 30 µM; on Adenosine receptor A3, 20 µM; on B2 bradykinin receptor, greater than 10 µM; on Motilin receptor it was greater than 10 µM; at Glucocorticoid receptor, 0.11 µM; on Histamine H2 receptor, greater than 30 µM.
For the compound `Cc1ncc2n1-c1ccc(Cl)cc1C(c1ccccc1F)=NC2` [MIDAZOLAM], the AC50 in assay [1] is greater than 10 µM; in assay [2], greater than 30 µM; at Adenosine receptor A3, greater than 30 µM; in assay [4], greater than 10 µM; at B2 bradykinin receptor, greater than 30 µM; on Motilin receptor, greater than 10 µM. Also, the AC50 at Glucocorticoid receptor and at Histamine H2 receptor was greater than 30 µM in each case.
Consider `CN(C(=O)c1c(O)c2ccccc2n(C)c1=O)c1ccccc1` [ROQUINIMEX], for which, at Adenosine receptor A3, the half-maximal activity concentration (AC50) is greater than 30 µM.
Regarding `OCc1cc(C(O)CNCCCCCCOCCCCc2ccccc2)ccc1O` (centres undefined) [SALMETEROL], the half-maximal activity concentration (AC50) was greater than 10 µM in assay [1]; greater than 30 µM in assay [2]; greater than 30 µM on Adenosine receptor A3; 11 µM in [3]; greater than 30 µM on B2 bradykinin receptor; greater than 10 µM at Motilin receptor. Besides, the AC50 on Glucocorticoid receptor is greater than 30 µM; at Histamine H2 receptor, greater than 10 µM.
`Cn1cnc2c(F)c(Nc3ccc(Br)cc3Cl)c(C(=O)NOCCO)cc21` [SELUMETINIB] yielded an AC50 at Adenosine receptor A3 greater than 30 µM.

The values are drawn from ChEMBL document CHEMBL5291721, “A preclinical secondary pharmacology resource illuminates target-adverse drug reaction associations of marketed drugs” (Nat Commun, 2023).
